Measurements from US11116778B2, “Prodrugs of ALOX-15 inhibitors and methods of using the same” (EMPIRICO INC., priority 2019, dated 2021).
Like-named read-outs stand apart in the source and are kept apart here.

Experiments:
[1] = Solubility assessment in water; assay type: physicochemical; settings: for solubility: thermodynamic from solid
Procedure: Water was added slowly to 4.7 mg of compound 5 until 4.7 ml of water was added at which point the phosphate fully dissolved. The pH of the solution was estimated using litmus paper and estimated to be <3. Without a counterion, the molecular weight of the phosphate is 418 m. Therefore, at 1 mg/ml, the concentration is 2.4 mM.
For comparison, compound 3 is soluble to 0.4 μg/ml (Han et al FASEB J. 2017 31(2):491-504), which at a molecular weight of 308 is 1.3 μM.
Compound 5 was suspended in water (at weight to give a final concentration of 10 mM) and then 2 eq NaHCO3 was added.

[2] = biological target: T1, 15-lipoxygenase (Oryctolagus cuniculus, UniProt P12530); experiment: 15-HETE levels in rabbit nasal mucosa after nasal administration of compound 5 (IL4/IL13 inflammation model); assay type: in vivo; settings: rostral and caudal regions
T1 construct: Animals were then euthanized and nasal mucosa was collected; tissue Covance; host or cells: nasal mucosa of NZW rabbits
T1 sequence (P12530 1-663): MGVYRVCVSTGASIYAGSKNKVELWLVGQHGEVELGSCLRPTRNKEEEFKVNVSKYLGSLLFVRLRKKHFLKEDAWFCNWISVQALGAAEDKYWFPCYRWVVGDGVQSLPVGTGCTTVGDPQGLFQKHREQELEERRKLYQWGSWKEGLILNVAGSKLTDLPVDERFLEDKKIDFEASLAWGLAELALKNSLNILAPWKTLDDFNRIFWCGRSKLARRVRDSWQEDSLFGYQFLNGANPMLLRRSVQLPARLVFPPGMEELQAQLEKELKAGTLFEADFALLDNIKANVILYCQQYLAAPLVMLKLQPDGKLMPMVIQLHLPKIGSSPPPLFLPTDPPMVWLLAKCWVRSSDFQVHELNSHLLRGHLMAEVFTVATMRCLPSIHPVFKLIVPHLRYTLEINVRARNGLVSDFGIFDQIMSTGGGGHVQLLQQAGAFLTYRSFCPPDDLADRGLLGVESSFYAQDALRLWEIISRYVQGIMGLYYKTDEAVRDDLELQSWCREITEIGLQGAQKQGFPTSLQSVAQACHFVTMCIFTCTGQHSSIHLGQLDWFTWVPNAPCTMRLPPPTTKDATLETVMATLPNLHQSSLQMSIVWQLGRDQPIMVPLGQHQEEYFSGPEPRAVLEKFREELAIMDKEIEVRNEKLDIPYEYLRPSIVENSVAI
Procedure: Six (6) female NZW rabbits were employed in this study. Rabbits were obtained from Covance (Denver Pa.). Rabbits were between approximately 10 and 12 months of age at the time of study start. At time point 0, all animals received 50 μL of solution containing rabbit IL4 (RND Systems/Biotechne) and human IL13 (PreproTech) at a concentration of 0.25 mg/mL each in 0.5×PBS containing 12.5 mg/mL BSA per nostril. This was administered intranasally via a venous catheter attached to a micropipette. The animal was positioned in a supine manner and the venous catheter inserted into the nostril. The volume was introduced into the nasal cavity and the same procedure was repeated with the other nostril.
At the 2, 4, and 6 hour time points, animals in Group 1 (n=3) received 0.2 mL of vehicle (0.9% saline) per nostril and the animals in Group 2 (n=3) received 0.2 mL of compound 5 (10 mM) in vehicle per nostril. […]
Nasal lavage and serum samples were analyzed for the levels of compound 3 and compound 5. […] Compound 3 was quantified using LC-MS/MS (QTrap5500, Applied Biosystems). […] Compound 5 was quantified using LC-MS/MS (QTrap5500, Applied Biosystems). […]

- pH of the solution ([1]; 1 mg/ml in water, estimated using litmus paper): < 3
- increase in water solubility above compound 3 ([1]; disodium salt): 7,200 fold
- further increase in solubility as a sodium salt ([1]; disodium salt versus free phosphoric acid): 4 fold
- increase in water solubility over compound 3 ([1]; free phosphoric acid): ~1800 fold
- solubility ([1]; free phosphoric acid, 4.7 mg fully dissolved in 4.7 ml water, read-out: solubility in water): 1000 µg/mL
- solubility ([1]; water with 2 eq NaHCO3, aqueous buffer, disodium salt, 2 eq NaHCO3 added, read-out: concentration in water giving a clear solution): ≥ 10000 µM
- solubility ([1]; water, free phosphoric acid, at 1 mg/ml, molecular weight 418, read-out: solubility in water, concentration): 2400 µM
- mean 15-HETE levels in nasal mucosa versus vehicle (FIG. 9) ([2]; rabbits, IL4/IL13 intranasal, compound 5 10 mM 0.2 mL per nostril at 2, 4, 6 hours): lower
- mean esterified 15-HETE levels in nasal mucosa versus vehicle (FIG. 10) ([2]; total after NaOH hydrolysis minus free 15-HETE): lower
Compound: O=C(Nc1ccc(F)cc1Cl)c1nn(COP(=O)(O)O)c(Cl)c1Cl [compound 5, (4,5-dichloro-3-((2-chloro-4-fluorophenyl)carbamoyl)-1H-pyrazol-1-yl)methyl dihydrogen phosphate]
